Entries after “also recorded” stand apart in the source; their conditions may differ.

The source of these data is patent US20240316164A1, “ENHANCED EXPRESSION OF AN AROMATIC AMINO ACID DECARBOXYLASE (AADC) IN THE SUBSTANTIA NIGRA FOR THE TREATMENT OF PARKINSON'S DISEASE” (Northwestern University, priority 2021, published 2024).

Assay [1] relates to cNdufs2−/− mice. The assay is described as follows: Y maze associative learning test. In kind it is in vivo, mouse. The conditions noted are these: systemic levodopa 6 mg/kg, P30. The text has this:
(§1) FIG. 4. cNdufs2^−/− mice manifest a progressive, levodopa-responsive Parkinsonism. a, Schematic diagram of the experimental protocol for Y maze test. […] Local electrical stimulation (350 μA, 2 ms) was used to evoke release. […] By P30, cNdufs2^−/− mice took longer (N=10-13 per group). e, Open-field traces in wildtype and cNdufs2^−/− mice at P30 and P100. f, Number of pauses during open field test in wildtype and cNdufs2^−/− mice. […] N=12-27per group. h-m, Gait analysis procedure and measurement schematics. h, Pictures of wildtype and cNdufs2^−/− mice footprints with representations of measurements of RF (Right Fore). RH (Right Hind). […] Box plots represent stride length in right hind paw at P100 (N=7 per group). m, Boxplots indicate swing duration in right hind paw. […] Kruskal-Wallis test: (b), (d), (f) and (g). ***P<0.001. 2-way ANOVA followed by Tukey's post hoc test (c). *P<0.05; **P<0.01; 1-way ANOVA followed by Tukey's post hoc test (i), (j), (l) and (m). Data are presented as box-and-whisker plots depicting median, quartiles, and range (b), (c), (i), (j), (l) and (m) or median and range (shaded area); (d), (f) and (g).
Unlike conventional PD models in which DA is depleted rapidly throughout the basal ganglia, the staging of pathology in cNdufs2^−/− mice allowed an assessment of how regional deficits in DA release are coupled to behavior. […]

Assay [2] has as its system cNdufs2−/− mice. The assay is described as follows: Adhesive removal test. To be noted: regardless of age. Type of assay: in vivo, mouse.
Text: as §1
By P40, open-field, exploratory behavior of cNdufs2″ mice began to be interrupted by brief pauses, although the total distance traveled in the testing period was normal (FIGS. 4e-g). […]

The subject of assay [3] is cNdufs2−/− mice. The assay is described as follows: Open field test. In kind it is in vivo, mouse.
In assay [4] the test system is cNdufs2−/− mice. The assay is described as follows: Rearing test. The conditions noted are these: levodopa 3 mg/kg, P20-P120. In kind it is in vivo, mouse. An excerpt:
(§2) FIG. 21. Behavioral phenotypes in cNdufs2^−/− mice. (a) Rearing test performance. b. […] Number of rearings begin to be impaired at P40. […] At P60, cNdufs2^−/− mice show difficulty transitioning between rearing and landing, spending much more time ‘stuck’ in an elevated posture. […] P60 and P100. […] P60 and P100. […] P60 and P100. […] P60 and P100. […] 1. […] P60 and P100. […] P60 and P100. […] P60 and P100. […] Kruskal-Wallis test: (b), and (c). *P<0.05; **P<0.01; 1-way ANOVA followed by Tukey's post hoc test: (h-o). Data are presented as median and range (shaded area).
By P40, open-field, exploratory behavior of cNdufs2″ mice began to be interrupted by brief pauses, although the total distance traveled in the testing period was normal (FIGS. 4e-g). Later, open-field behavior of cNdufs2^−/− mice became progressively more impaired and total distance traveled began to fall (FIG. 4g). […] Another common exploratory behavior of mice involves rearing. When placed in a tall glass cylinder, mice rear, land and rear again in a different part of the cylinder; in a 3-minute period, mice typically rear and land 15-20 times. At P30, rearing behavior of cNdufs2^−/− mice was normal, but by P60 cNdufs2^−/− mice appeared to have difficulty transitioning between rearing and landing, spending much more time ‘stuck’ in an elevated posture. […]

The subject of assay [5] is cNdufs2−/− mice. The assay is described as follows: Gait analysis on treadmill. Type of assay: in vivo, mouse.
Text: as §1, §2
However, by P100, cNdufs2^−/− mice had splayed hindlimbs, abnormal paw placement and alterations in stride when forced to ambulate on the treadmill (FIG. 4h-m, FIG. 21h-o). […] Because cNdufs2^−/− mice manifest a clear, levodopa-responsive Parkinsonism that is attributable to MCI dysfunction, they are referred to as MCI-Park mice.

In a further assay the test system is SN dopaminergic neurons. The assay is described as follows: Cytosolic ATP/ADP ratio with PercevalHR in ex vivo brain slice. Type of assay: cell-based, mouse. The conditions noted are these: wildtype dopaminergic neurons, inhibition of mitochondrial complex V. The text has this: FIG. 1. Loss of Ndufs2 function triggers mitochondrial and genomic adaptations in SN DA Neurons. a, Schematic of a coronal section of the midbrain highlighting the sampled region of SNc (orange). b, Meta-analysis of RNAseq data obtained by Cre-dependent RiboTag mRNA precipitation from P40 wildtype mice. […] Scale bar: 10 μm. e, Representative TMRM fluorescence time series after the application of carboxyatractyloside, the adenine nucleotide transporter inhibitor (iANT). f, Box plots of TMRM after blocking ANT with carboxyatractyloside and depolarizing mitochondria with FCCP (wildtype, P40 n=8 (1 per section), 6 mice; cNdufs2^−/−, P20 n=4 (1 per section), 3 mice; P40 n=5 (1 per section), 4 mice)). g, Cartoon representing the activity of the ETC and ANT following Ndufs2 deletion. h, Electron micrographs of SN DA neurons. The nucleus and the mitochondria are highlighted in green and red, respectively. […] The percentage of abnormal mitochondria was calculated as the ration between the area occupied by abnormal mitochondria over the total area occupied by mitochondria for each cell. […] Scale bar: 15 μm. p, Representative time-lapse measurements of Perceval-HR fluorescence ratio. […]

[6] abbreviates: levodopa 6 mg/kg, P30, P60 and P100.

With `N[C@@H](Cc1ccc(O)c(O)c1)C(=O)O` [levodopa], the “associative learning (memory) task, percentage of correct choices” value with cNdufs2−/− mice [1] was “restored”. Also, the adhesive removal speed entry in the assay with cNdufs2−/− mice [2] is “improved adhesive removal speed regardless of age”. The “number of pauses during open field test” value with cNdufs2−/− mice [3] (cNdufs2−/− mice, levodopa 3 mg/kg) is on record as “rescued this deficit”. Moreover, the “open-field performance (pauses, total distance traveled)” value in the assay on cNdufs2−/− mice [3] (cNdufs2−/− mice, levodopa treatment) is reported as “improved performance in this task”. The open-field ambulation result in the assay on cNdufs2−/− mice [3] (control MCI-Park mice without AADC, low systemic levodopa dose 1.5 mg/kg, ~P100, 1.5 mg/kg) was “had no discernible effect”. Besides, in the assay on cNdufs2−/− mice [4], the “number of rearings in a 3-minute period” value was “did not rescue this deficit” and the rearing time entry is “did not lessen this deficit; also recorded: did not rescue this deficit”. In the assay on cNdufs2−/− mice [5] (P100), the “gait deficits (splayed hindlimbs, abnormal paw placement, alterations in stride)” value is given as “ameliorated some, but not all of these deficits”. The “swing duration in right hind paw” value in the assay on cNdufs2−/− mice [5] (levodopa 6 mg/kg) is given as “not rescued”. Further, in the assay on cNdufs2−/− mice [5] (setting [6]), the “brake duration in right hind paw” value is recorded as “did not rescue this phenotype”, the “propulsion time in right hind paw” value was “did not rescue this phenotype”, the “step sequence in right hind paw” value is given as “did not rescue this phenotype” and the “stride frequency in right hind paw” value was “did not rescue this phenotype”. Further, in the assay with cNdufs2−/− mice [5] (levodopa 6 mg/kg, P100), the “hind limb stance width” value is “rescued this phenotype”, the “paw area in right hind paw” value is on record as “rescued this phenotype at P100” and the “stance duration in right hind paw” value was “rescued this phenotype at P100”.
Turning to `CC[C@H]1/C=C/C=C/C[C@@H](C)[C@H](O)[C@@](C)(O)C(=O)[C@@H](C)[C@H](O)[C@@H](C)C(=O)[C@@H](C)[C@H](O)[C@@H](C)/C=C/C(=O)O[C@@H]2[C@H](C)[C@H](CC1)O[C@]1(CC[C@H](C)[C@H](C[C@@H](C)O)O1)[C@H]2C` [oligomycin], the “cytosolic ATP/ADP ratio (ATP levels)” value in the assay on SN dopaminergic neurons is “caused a precipitous drop in ATP levels”.
